Where “and” joins values, the source holds several entries; their conditions need not be identical. Equal entries are not always repeated.
Legend:
Assay type in all cases: cell-based
T-47D cells = assay: Inhibition of cell proliferation in T-47D cells (CCK-8, 6 days); details: 6 days of treatment
From the text: Test Example 2: Inhibitory effect of the PROTAC compounds provided in the present disclosure on cell proliferation in T-47D cells (source ATCC)
The complete medium required for T-47D cells was 1640 ( ATCC, Product number: A10491-01) basal medium containing 10% fetal bovine serum. T-47D cells were inoculated in 96-well plates at a density of 3,000 cells/well, and different concentrations of the PROTAC compounds 1-55 provided in the examples of the present disclosure and a positive control sample ARV-471 (source: Innochem) were prepared to treat cells, and the cells were treated at 37°C in a cell culture incubator with 5% CO2 for 6 days. Cell viability was detected using a CCK-8 kit (Beyotime, Product number: C0040) according to the manufacturer's instructions. […] Table 2 IC50 values for inhibition of the proliferation of T-47D cells by the PROTAC compounds provided by the present disclosure and the positive control sample

MCF-7 cells = assay: Inhibition of cell proliferation of MCF-7 cells (CCK-8, 9 days)
Procedure, shortened: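 Read-out was CCK-8 viability after 9-day continuous exposure (37°C, 5% CO2) of MCF-7 cells plated at 800/well in 10% FBS DMEM across several compound concentrations. Values are proliferation IC50s.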

ERα [1] = target: T1, ERα (Homo sapiens, UniProt P03372); assay: Degradation of ERα in MCF-7 cells (immunoblotting, 4 h)
T1 sequence (P03372 1-595): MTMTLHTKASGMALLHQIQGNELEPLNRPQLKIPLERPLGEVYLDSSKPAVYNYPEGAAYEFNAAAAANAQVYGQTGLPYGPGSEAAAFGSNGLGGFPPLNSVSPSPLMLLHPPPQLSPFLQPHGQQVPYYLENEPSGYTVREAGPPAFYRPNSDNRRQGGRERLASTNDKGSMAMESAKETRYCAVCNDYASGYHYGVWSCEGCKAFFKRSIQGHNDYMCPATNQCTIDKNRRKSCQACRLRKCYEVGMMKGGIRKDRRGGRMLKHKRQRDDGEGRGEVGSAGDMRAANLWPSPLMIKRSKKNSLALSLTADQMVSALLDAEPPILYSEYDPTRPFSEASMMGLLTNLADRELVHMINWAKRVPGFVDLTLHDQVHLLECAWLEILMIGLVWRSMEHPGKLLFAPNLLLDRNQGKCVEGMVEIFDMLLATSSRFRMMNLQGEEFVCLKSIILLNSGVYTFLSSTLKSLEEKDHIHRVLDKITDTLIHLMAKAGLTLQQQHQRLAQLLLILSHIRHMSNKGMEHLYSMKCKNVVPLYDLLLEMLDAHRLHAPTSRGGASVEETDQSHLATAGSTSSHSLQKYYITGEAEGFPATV
Procedure, shortened: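 Degradation rate reflects ERα band intensity, corrected to an internal reference protein, relative to control. Values come from Western blotting of lysates from MCF-7 cells exposed 4 h at 37°C to compounds at final concentrations of 0.15-1000nM.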

ERα [2] = target: T1, ERα; assay: Degradation of ERα in T-47D cells (immunoblotting, 4 h); set-up: host or cells: T-47D
Procedure, shortened: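 ERα protein levels were assessed by immunoblot of RIPA lysates (with protease inhibitor) after 4 h exposure at 37°C. Compound was added in DMSO to T-47D cells at final concentrations of 0.15-1000 nM.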

[3] = 9 days of treatment, CCK-8, Table 5
[4] = treated for 9 days, CCK-8 kit (Table 6)

SMILES | IC50 (T-47D cells; Table 2) | IC50 (T-47D cells; Table 3) | IC50 (MCF-7 cells; [3]) | IC50 (MCF-7 cells; [4]) | Degradation rate (%) of ERα in MCF-7 cells (ERα [1]; 1nM compound) | Degradation rate (%) of ERα in MCF-7 cells (ERα [1]; 10nM compound) | Degradation rate (%) of ERα in T-47D cells (ERα [2]; 1nM compound) | Degradation rate (%) of ERα in T-47D cells (ERα [2]; 10nM compound)
O=C1CCC(N2Cc3cc4c(cc3C2=O)CCC2(CCN(C3CC5(CCN(c6ccc([C@@H]7c8ccc(O)cc8CC[C@@H]7c7ccccc7)cc6)CC5)C3)CC2)O4)C(=O)N1 (some centres unmarked) [M12] | 2 nM | 2 nM | 10 nM | 12 nM | – | – | – | –
CC1(C(=O)N2CCC(N3CCC4(CC3)COc3c4ccc4c3CN(C3CCC(=O)NC3=O)C4=O)CC2)CCN(c2ccc([C@@H]3c4ccc(O)cc4CC[C@@H]3c3ccccc3)cc2)CC1 (some centres unmarked) [N1] | – | 1.18 nM | – | – | 54% | 68% | 58% | 79%
O=C1CCC(N2Cc3cc4c(cc3C2=O)CCC2(CN(CC3CCC5(CC3)CCN(c3ccc([C@@H]6c7ccc(O)cc7CC[C@@H]6c6ccccc6)cc3)CC5)C2)O4)C(=O)N1 (some centres unmarked) [A3 8] | – | 15 nM | – | – | – | – | – | –
O=C1CCC(N2C(=O)c3cc4c(cc3C2=O)OC2(CC4)CN(C3CC4(CCN(c5ccc(C6c7ccc(O)cc7CCC6c6ccccc6)cc5)CC4)C3)C2)C(=O)N1 (centres unmarked) [M9] | 101 nM | – | – | – | – | – | – | –
CC1CC(N2CCC3(CC2)COc2c3ccc3c2CN(C2CCC(=O)NC2=O)C3=O)CCN1C1CCN(c2ccc(C3c4ccc(O)cc4CCC3c3ccccc3)cc2)CC1 (centres unmarked) [K22] | – | 8.52 nM | – | 24.3 nM | – | – | -3% | 19%
O=C1CCC(N2C(=O)c3cc4c(cc3C2=O)C2(CCN(C3CC5(CCN(c6ccc(C7c8ccc(O)cc8CCC7c7ccccc7)cc6)CC5)C3)CC2)CO4)C(=O)N1 (centres unmarked) [A19] | 20 nM | – | – | – | – | 18% | – | 18%
O=C1CCC(N2C(=O)c3cc4c(cc3C2=O)C2(CCN(C3CCN(c5ccc(C6c7ccc(O)cc7CCC6c6ccccc6)cc5)CC3)CC2)CO4)C(=O)N1 (centres unmarked) [A16] | 91 nM | – | – | – | – | -5% | – | -22%
O=C1CCC(N2Cc3cc4c(cc3C2=O)CCC2(CN(C3CC5(CCN(c6ccc([C@@H]7c8ccc(O)cc8CC[C@@H]7c7ccccc7)cc6)CC5)C3)C2)O4)C(=O)N1 (some centres unmarked) [M13] | 1.6 nM | – | 70 nM | – | – | – | 13% | 27%
N#CC1(CN2CCC3(CC2)COc2c3ccc3c2CN(C2CCC(=O)NC2=O)C3=O)CCN(CC2CCN(c3ccc([C@@H]4c5ccc(O)cc5CC[C@@H]4c4ccccc4)cc3)CC2)CC1 (some centres unmarked) [N7] | – | 1.72 nM | – | – | 2% | 13% | 56% | 67%
O=C1CCC(N2C(=O)c3cc4c(cc3C2=O)OC2(CC4)CN(C3CC4(CCN(c5ccc([C@@H]6c7ccc(O)cc7CC[C@@H]6c6ccccc6)cc5)CC4)C3)C2)C(=O)N1 (some centres unmarked) [M10] | 14 nM | – | – | – | – | – | 22% | 54%
O=C1CCC(N2C(=O)c3cc4c(cc3C2=O)OCC2(CCN(C3CC5(C3)CN(c3ccc(C6c7ccc(O)cc7CCC6c6ccccc6)cc3)C5)CC2)C4)C(=O)N1 (centres unmarked) [O2] | 180 nM | – | – | – | – | – | – | –
O=C1CCC(N2Cc3cc4c(cc3C2=O)OCC2(CCN(C3CC5(CCN(c6ccc([C@@H]7c8ccc(O)cc8CC[C@@H]7c7ccccc7)cc6)CC5)C3)CC2)O4)C(=O)N1 (some centres unmarked) [M11] | 1 nM | – | 20 nM | – | – | – | 17% | 56%
O=C1CCC(N2C(=O)c3cc4c(cc3C2=O)OC2(CC4)CCN(CC3CCN(c4ccc(C5c6ccc(O)cc6CCC5c5ccccc5)cc4)C3)CC2)C(=O)N1 (centres unmarked) [A9] | 24 nM | – | – | – | – | -24% | – | -25%
O=C1CCC(N2Cc3c(ccc4c3OCC43CCN(CC4(F)CCN(CC5CCN(c6ccc([C@@H]7c8ccc(O)cc8CC[C@@H]7c7ccccc7)cc6)CC5)CC4)CC3)C2=O)C(=O)N1 (some centres unmarked) [N6] | – | 0.87 nM | – | – | 34% | 55% | 35% | 62%
O=C1CCC(N2C(=O)c3cc4c(cc3C2=O)C2(CCN(CC3CCN(c5ccc(C6c7ccc(O)cc7CCC6c6ccccc6)cc5)C3)CC2)CO4)C(=O)N1 (centres unmarked) [B1] | 38 nM | – | – | – | – | -35% | – | -15%
O=C1CCC(N2Cc3c(ccc4c3OCC43CCN(C4CC5(CCC6(CC5)CN(C5CCN(c7ccc([C@@H]8c9ccc(O)cc9CC[C@@H]8c8ccccc8)cc7)CC5)C6)C4)CC3)C2=O)C(=O)N1 (some centres unmarked) [K16] | – | 3 nM | – | 320 nM and 214 nM | – | – | – | –
O=C1CCC(N2C(=O)c3cc4c(cc3C2=O)C2(CCN(CC3CN(c5ccc([C@@H]6c7ccc(O)cc7CC[C@@H]6c6ccccc6)cc5)C3)CC2)CO4)C(=O)N1 (some centres unmarked) [B3] | 100 nM | – | – | – | – | -14% | – | -18%
O=C1CCC(N2Cc3c(ccc4c3OCC43CCN(C(=O)C4CCC5(CC4)CN(c4ccc([C@@H]6c7ccc(O)cc7CC[C@@H]6c6ccccc6)cc4)C5)CC3)C2=O)C(=O)N1 (some centres unmarked) [A83] | – | – | – | 39 nM | 23% | 46% | 40% | 62%
O=C1CCC(N2Cc3c(ccc4c3OCC43CCN(C4CC5CCCC(C4)N5C(=O)C4CCN(c5ccc([C@@H]6c7ccc(O)cc7CC[C@@H]6c6ccccc6)cc5)CC4)CC3)C2=O)C(=O)N1 (some centres unmarked) [D1] | – | – | – | 9.05 nM | 19% | 68% | 34% | 83%
CCN(C(=O)CN1CCC2(CC1)COc1c2ccc2c1CN(C1CCC(=O)NC1=O)C2=O)C1CC2(CCN(c3ccc([C@@H]4c5ccc(O)cc5CC[C@@H]4c4ccccc4)cc3)CC2)C1 (some centres unmarked) [H55] | – | – | – | 199 nM | 28% | 62% | 56% | 83%
O=C1CCC(N2Cc3c(ccc4c3OCC43CCN(CC(=O)N4CCC(OC5CCN(c6ccc([C@@H]7c8ccc(O)cc8CC[C@@H]7c7ccccc7)cc6)CC5)CC4)CC3)C2=O)C(=O)N1 (some centres unmarked) [K46] | – | – | – | 85 nM | 54% | 85% | 73% | 90%
